Measured values reported in patent US20100324067A1, “TETRACYCLIC DIPYRANO-COUMARIN COMPOUNDS WITH ANTI-HIV AND ANTI-MYCOBACTERIUM TUBERCULOSIS ACTIVITIES” (priority 2007, published 2010).
≈ marks a conversion by molar mass, not a printed value. Where two headings read alike, the source gives them in different places.

Tests used:
host cells of the virus = assay: Cell toxicity to the host cells of the virus at 10 μM; type: cell-based
HIV-1 = assay: Inhibitory activity against HIV-1 (literature method, Chen et al. J Virol 1997); conditions: for inhibition at 1 µM: Human immunodeficiency virus 1, read-out: Anti-HIV (%, 1.0 μM); for EC50: Human immunodeficiency virus 1; for Therapeutic index (TI) = 50% cytotoxicity doses/50% effective dose: value in brackets after EC50; for Anti-HIV (%, 1.0 μM): compound at 1.0 μM
Experimental: Inhibitory activity of the coumarin derivatives of the present invention against HIV-1.
Inhibitory activity of the compounds against HIV-1 is assayed using the literature method. The experimental conditions, procedures, reagents and so on of the experiment are referred to the reference of “ZHIWEI CHEN, PEI ZHOU, DAVID D. HO, et al. Genetically divergent strains of simian immuno-deficiency virus use CCR5 as a coreceptor for entry. Journal of Virology, 1997, 71(4): 2705-2714”.

[1] = system: Mycobacterium tuberculosis H37Rv (ATCC 27294); assay: Microplate Alamar Blue Assay (MABA) in BACTEC 12B medium (TAACF screen); type: cell-based
[2] = read-out: anti-TB active compound (MIC90 less than 10 μg/mL), classification

Row | Structure (SMILES) | melting point | Cell toxicity (10 μM) (host cells of the virus) | inhibition at 1 µM (HIV-1) | also measured
1 | CCCc1cc(=O)oc2c3c(c4c(c12)OC(C)(C)C=C4)OC(c1ccc(C)cc1)CC3=O (stereo not drawn) [Example 17, 6,6-dimethyl-4-n-propyl-10-p-methyl-phenyl-2H,6H,12H-benzo[1,2-b:3,4-b′:5,6-b″]-tripyranyl-2,12-dione] | 174 to 176 °C | − | 57% | 
2 | CCCc1cc(=O)oc2c3c(c4c(c12)OC(C)(C)C=C4)OC(CBr)CC3=O (stereo not drawn) [Example 57] |  | − | 93.5% | IC50 [1]: 0.825 µg/mL (≈ 1.9 µM); MIC90 ([1]; MABA, H37Rv, read-out: MIC90): 1.75 µg/mL (≈ 4.05 µM); EC50 (HIV-1): 2.85 nM; anti-HIV-1 activity in vitro compared to (+)-calanolide A (HIV-1; in words): much higher inhibitory activity; therapeutic index, in words (HIV-1; in words): high therapeutic index; Therapeutic index (TI) = 50% cytotoxicity doses/50% effective dose (HIV-1): > 10526
3 | COc1cc(-c2cc(=O)oc3c4c(c5c(c23)OC(C)(C)C=C5)OC(C)CC4=O)cc(OC)c1OC (stereo not drawn) [Example 24, 6,6,10-trimethyl-4-(3,4,5-trimethoxyl)-phenyl-2H,6H,12H-benzo[1,2-b:3,4-b′:5,6-b″]-tripyranyl-2,12-dione] | 129 to 131 °C | − | 58% | 
4 | CCCc1cc(=O)oc2c3c(c4c(c12)OC(c1ccccc1[N+](=O)[O-])CC4OCC)OC(C)CC3=O (stereo not drawn) [Example 98, 8-ethoxyl-4-n-propyl-6-(o-nitrophenyl)-10-methyl-4-n-propyl-7,8,10,11-tetrahydro-6H-benzo[2,3-f;2′,3′-h]-tripyranyl-2,12-dione] | 237 to 240 °C |  | 61% | 
5 | CCCC1C=Cc2c3c(c4oc(=O)cc(CC)c4c2O1)C(=O)CC(C)O3 (stereo not drawn) [Example 47] | 119 to 121 °C |  | 97% | IC50 [1]: 1.49 µg/mL (≈ 4.21 µM); MIC90 ([1]; MABA, H37Rv, read-out: MIC90): 1.73 µg/mL (≈ 4.88 µM); MIC90 [1, 2]: < 10 µg/mL
6 | CCCCC1C=Cc2c3c(c4oc(=O)cc(CC)c4c2O1)C(=O)CC(C)O3 (stereo not drawn) [Example 46] | 119 to 121 °C |  | 96.7% | IC50 [1]: 0.276 µg/mL (≈ 0.749 µM); MIC90 ([1]; MABA, H37Rv, read-out: MIC90): 0.716 µg/mL (≈ 1.94 µM); MIC90 [1, 2]: < 10 µg/mL
7 | CCCCC1C=Cc2c3c(c4oc(=O)cc(CCC(F)(F)F)c4c2O1)C(=O)CC(C)O3 (stereo not drawn) [Example 73, 4-(3,3′,3″-trifluoro-n-propyl)-6-n-butyl-10-methyl-2H,6H,12H-benzo[1,2-b:3,4-b′: 5,6-b″]-tripyranyl-2,12-dione] | 129 to 130 °C | − | 53.6% | 
8 | CCc1cc(=O)oc2c3c(c4c(c12)OC(C)(C)C=C4)OC(C)CC3=O (stereo not drawn) [Example 9] |  | − | 73.2% | EC50 (HIV-1): 270 nM; Therapeutic index (TI) = 50% cytotoxicity doses/50% effective dose (HIV-1): > 1000
9 | CCCCC1C=Cc2c3c(c4oc(=O)cc(CCC)c4c2O1)C(=O)C(C)CO3 (stereo not drawn) [Example 77, 4-n-propyl-6-n-butyl-11-methyl-2H,6H,12H-benzo[1,2-b:3,4-b′:5,6-b″]-tripyranyl-2,12-dione] | 144 to 145 °C |  | 35.2% | 
10 | CCCc1cc(=O)oc2c3c(c4c(c12)OC(c1ccccc1[N+](=O)[O-])C=C4)OC(C)CC3=O (stereo not drawn) [Example 97] | 216 to 218 °C | − | 52.6% | 
11 | CCCc1cc(=O)oc2c3c(c4c(c12)OC(C)(C)C=C4)OC(C)(C)CC3=O [Example 12, 6,6,10,10-tetramethyl-4-n-propyl-2H,6H,12H-benzo[1,2-b:3,4-b′:5,6-b″]-tripyranyl-2,12-dione] | 110 to 112 °C |  | 68.3% | EC50 (HIV-1): 640 nM; Therapeutic index (TI) = 50% cytotoxicity doses/50% effective dose (HIV-1): 47-140
12 | CCCCc1cc(=O)oc2c3c(c4c(c12)OC(c1ccccc1)C=C4)OC(C)CC3=O (stereo not drawn) [Example 44] | 137 to 139 °C |  | 96.4% | 
13 | CCCc1c(Cl)c(=O)oc2c3c(c4c(c12)OC(C)(C)C=C4)OC(C)CC3=O (stereo not drawn) [Example 20, 6,6,10-trimethyl-3-chrolo-4-n-propyl-2H,6H,12H-benzo[1,2-b:3,4-b′:5,6-b″]-tripyranyl-2,12-dione] |  | − | 68.1% | EC50 (HIV-1): 370 nM; Therapeutic index (TI) = 50% cytotoxicity doses/50% effective dose (HIV-1): 243-730
14 | C/C=C/C1C=Cc2c3c(c4oc(=O)cc(CCC)c4c2O1)C(=O)C(C)CO3 (stereo not drawn) [Example 76, 4-n-propyl-6-propenyl-11-methyl-2H,6H,12H-benzo[1,2-b:3,4-b′:5,6-b″]-tripyranyl-2,12-dione] | 165 to 166 °C | − | 37.8% | 
15 | CCCc1c(Cl)c(=O)oc2c3c(c4c(c12)OCC(C)=C4)OC(C)CC3=O (stereo not drawn) [Example 91, 4-n-propyl-3-chloro-7,10-dimethyl-2H,6H,12H-benzo[1,2-b:3,4-b′:5,6-b″]-tripyranyl-2,12-dione] | 129 to 131 °C | − | 49.1% | 
16 | C/C=C/C1C=Cc2c3c(c4oc(=O)c(Cl)c(CCC)c4c2O1)C(=O)CC(C)O3 (stereo not drawn) [Example 86, 4-n-propyl-6-propenyl-3-chloro-10-methyl-2H,6H,12H-benzo[1,2-b:3,4-b′:5,6-b″]-tripyranyl-2,12-dione] | 142 to 144 °C | − | 57.3% | 
17 | CCCc1cc(=O)oc2c3c(c4c(c12)OC(C)(C)C=C4)OC(C)CC3=O (stereo not drawn) [Example 29, 6,6,10-trimethyl-4-n-propyl-2H,6H,12H-benzo[1,2-b:3,4-b′:5,6-b″]-tripyranyl-2,12-dione] | 112 to 115 °C | − |  | Anti-HIV (%, 1.0 μM) (HIV-1): 73.1%
18 | CCCc1cc(=O)oc2c3c(c4c(c12)OC(C)(C)C=C4)OCC(C)C3=O (stereo not drawn) [Example 30, 6,6,11-trimethyl-4-n-propyl-2H,6H,12H-benzo[1,2-b:3,4-b′:5,6-b″]-tripyranyl-2,12-dione] | 133 to 134 °C |  | 38.9% | 
19 | CCc1cc(=O)oc2c3c(c4c(c12)OC(c1ccccc1)C=C4)OC(C)CC3=O (stereo not drawn) [Example 45] | 126 to 128 °C |  | 96.4% | IC50 [1]: 2.01 µg/mL (≈ 5.18 µM); MIC90 ([1]; MABA, H37Rv, read-out: MIC90): 2.73 µg/mL (≈ 7.02 µM); MIC90 [1, 2]: < 10 µg/mL
20 | CCCc1cc(=O)oc2c3c(c4c(c12)OC(C)(C)C=C4)OC(C)CC3O (single isomer, unassigned; (+)) [(+)-11-demethyl Calanolide A, reference compound] |  |  |  | Cell toxicity (10 μM) (host cells of the virus; class symbol, share of host cells of the virus died at 10 μM compound): ++ (10-80%); Cell toxicity (10 μM), number printed before the class symbol (host cells of the virus; host cells of the virus died at 10 μM compound): 54%; Anti-HIV (%, 1.0 μM) (HIV-1): 75%
21 | CCCCCC1CC(=O)c2c(c3c(c4c(CCC)cc(=O)oc24)OC(C)(C)C=C3)O1 (stereo not drawn) [Example 15, 6,6-dimethyl-4-n-propyl-10-n-pentyl-2H,6H,12H-benzo[1,2-b:3,4-b′:5,6-b″]-tripyranyl-2,12-dione] | 128 to 131 °C |  | 46.4% | 
22 | CC1CC(=O)c2c(c3c(c4c5c(c(=O)oc24)CCCC5)OC(C)(C)C=C3)O1 (stereo not drawn) [Example 27, 6,6,10-trimethyl-3,4-cyclohexyl-2H,6H,12H-benzo[1,2-b:3,4-b′:5,6-b″]-tripyranyl-2,12-dione] | 121 to 123 °C | − | 67% | 
23 | CCCc1cc(=O)oc2c1c1c(c3occc(=O)c32)C=CC(C)(C)O1 [Example 13, 6,6-dimethyl-4-n-propyl-2H,6H,12H-benzo[1,2-b:3,4-b′:5,6-b″]-tripyranyl-2,12-dione] | 102 to 104 °C | − | 64.9% | 
24 | CC1CC(=O)c2c(c3c(c4c(CN5CCN(C)CC5)cc(=O)oc24)OC(C)(C)C=C3)O1 (stereo not drawn) [Example 7, 6,6,10-trimethyl-4-p-methylpiperazidinylmethylene-10,11-dihydro-6H-[2,3-f:2′,3′-h]-tri pyranyl-2,12-dione] | 238 to 239 °C | − | 48.3% | 
25 | CCCc1c(Cl)c(=O)oc2c3c(c4c(c12)OC(c1ccccc1)C=C4)OC(C)CC3=O (stereo not drawn) [Example 50, 1-methyl-4-n-propyl-3-chloro-6-phenyl-2H,6H,12H-benzo[1,2-b:3,4-b′:5,6-b″]-tripyranyl-12-dione] | 152 to 154 °C |  | 96.3% | IC50 [1]: 6.07 µg/mL (≈ 13.9 µM); MIC90 ([1]; MABA, H37Rv, read-out: MIC90): 6.7 µg/mL (≈ 15.3 µM); MIC90 [1, 2]: < 10 µg/mL
26 | CCCc1c(F)c(=O)oc2c3c(c4c(c12)OCC(C)=C4)OC(C)CC3=O (stereo not drawn) [Example 92] | 122 to 124 °C | − | 47.1% | 
27 | CCCc1cc(=O)oc2c3c(c4c(c12)OC(C)(C)C=C4)O[C@@H]1CCCC[C@H]1C3=O [Example 18, 6,6-dimethyl-4-n-propyl-10,11-trans-cyclohexyl-2H,6H,12H-benzo[1,2-b:3,4-b′:5,6-b″]-tripyranyl-2,12-dione] | 151 to 153 °C |  | 40% | IC50 [1]: 46.8 µg/mL (≈ 119 µM); MIC90 ([1]; MABA, H37Rv, read-out: MIC90): > 100 µg/mL
28 | CCCc1cc(=O)oc2c3c(c4c(c12)OC(C)C=C4)OCC(C)C3=O (stereo not drawn) [Example 75, 6,11-dimethyl-4-n-propyl-2H,6H,12H-benzo[1,2-b:3,4-b′:5,6-b″]-tripyranyl-2,12-dione] | 135 to 137 °C |  | 62.4% | IC50 [1]: 1 µg/mL (≈ 2.95 µM); MIC90 ([1]; MABA, H37Rv, read-out: MIC90): 1.89 µg/mL (≈ 5.56 µM); MIC90 [1, 2]: < 10 µg/mL
29 | CCCc1cc(=O)oc2c3c(c4c(c12)OC(C)(C)C=C4)O[C@@H]1CCCC[C@@H]1C3=O [Example 19, 6,6-dimethyl-4-n-propyl-10,11-cis-cyclohexyl-2H,6H,12H-benzo[1,2-b:3,4-b′:5,6-b″]-tripyranyl-2,12-dione] | 156 to 159 °C |  | 59.3% | IC50 [1]: 7.95 µg/mL (≈ 20.1 µM); MIC90 ([1]; MABA, H37Rv, read-out: MIC90): 11.2 µg/mL (≈ 28.5 µM)
